Measurements as given in paper PMC3914206.

How the values were obtained:
[1] = target: T1, panel of 442 kinases (Homo sapiens, UniProt Q8IVW4); assay type: binding; details: Compound Concentration 10 µM
T1 construct: purchased KINOMEscan
From the text: (§1) We assessed the selectivity of members of this scaffold using the KINOMEscan methodology across a near comprehensive panel of 442 kinases [[18,27]].

[2] = target: T2, panel of 442 kinases (Homo sapiens, UniProt Q9UQ88); assay type: binding; details: Compound Concentration 10 µM
T2 construct: purchased KINOMEscan
T2 sequence (Q9UQ88 1-783): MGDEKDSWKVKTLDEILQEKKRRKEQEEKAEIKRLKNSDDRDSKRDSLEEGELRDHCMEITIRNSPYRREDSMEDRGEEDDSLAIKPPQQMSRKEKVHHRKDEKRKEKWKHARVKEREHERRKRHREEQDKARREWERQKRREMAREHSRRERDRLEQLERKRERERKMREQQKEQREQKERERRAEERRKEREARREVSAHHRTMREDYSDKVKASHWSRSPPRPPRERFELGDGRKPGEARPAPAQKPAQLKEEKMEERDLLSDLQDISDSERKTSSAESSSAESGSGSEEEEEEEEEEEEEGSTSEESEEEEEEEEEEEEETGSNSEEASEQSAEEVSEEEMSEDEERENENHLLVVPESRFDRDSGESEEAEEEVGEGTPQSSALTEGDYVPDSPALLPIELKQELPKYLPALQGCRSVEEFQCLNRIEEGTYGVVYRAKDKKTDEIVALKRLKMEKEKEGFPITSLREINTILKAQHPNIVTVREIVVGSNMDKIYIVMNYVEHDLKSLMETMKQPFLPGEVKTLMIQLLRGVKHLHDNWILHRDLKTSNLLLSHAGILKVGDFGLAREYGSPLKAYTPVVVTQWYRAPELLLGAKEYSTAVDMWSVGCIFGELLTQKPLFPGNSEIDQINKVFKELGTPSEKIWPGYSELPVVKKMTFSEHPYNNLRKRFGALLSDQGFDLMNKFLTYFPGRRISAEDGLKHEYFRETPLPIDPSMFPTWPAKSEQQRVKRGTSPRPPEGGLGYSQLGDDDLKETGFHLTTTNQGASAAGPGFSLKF
From the text: as §1

T1 sequence (Q8IVW4 whole entry): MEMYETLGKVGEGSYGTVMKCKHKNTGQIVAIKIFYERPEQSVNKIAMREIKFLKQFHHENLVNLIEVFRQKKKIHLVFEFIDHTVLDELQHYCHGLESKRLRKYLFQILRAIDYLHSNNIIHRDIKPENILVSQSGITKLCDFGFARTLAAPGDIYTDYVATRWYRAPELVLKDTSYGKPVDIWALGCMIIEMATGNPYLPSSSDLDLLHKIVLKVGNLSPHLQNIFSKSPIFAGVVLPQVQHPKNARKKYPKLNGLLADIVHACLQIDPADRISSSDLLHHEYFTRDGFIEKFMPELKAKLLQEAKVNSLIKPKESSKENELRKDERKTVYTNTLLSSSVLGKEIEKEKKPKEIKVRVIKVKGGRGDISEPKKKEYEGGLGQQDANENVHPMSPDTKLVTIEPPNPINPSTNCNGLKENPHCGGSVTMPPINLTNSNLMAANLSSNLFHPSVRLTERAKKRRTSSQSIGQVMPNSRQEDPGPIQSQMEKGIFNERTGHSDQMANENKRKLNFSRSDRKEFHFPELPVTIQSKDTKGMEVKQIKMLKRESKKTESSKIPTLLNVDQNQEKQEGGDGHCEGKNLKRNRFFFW

**Q.** What does the source list for `COc1cc(C(=O)N2CCC(N3CCN(C)CC3)CC2)ccc1Nc1ncc2c(n1)N(C)c1ccccc1C(=O)N2C` [15 (LRRK2-IN-1)]?
**A.** KINOMEscan: CDKL3 [1]: 83; KINOMEscan: CDC2L2 [2]: 82

**Q.** `CCOc1cc(C(=O)N2CCC(N3CCN(C)CC3)CC2)ccc1Nc1ncc2c(n1)N(C1CCCC1)c1ccccc1C(=O)N2C` [Compound 26] was tested. Which “KINOMEscan: CDKL3” value [1] did it give?
**A.** The value was 99.

**Q.** What about the “KINOMEscan: CDC2L2” value [2] of the same compound?
**A.** Its value is 100.

**Q.** How did the “KINOMEscan: CDKL3” value [1] turn out when `COc1cc(C(=O)N2CCC(N3CCN(C)CC3)CC2)ccc1Nc1ncc2c(n1)N1CCc3cccc(c31)C(=O)N2C` [Compound 24] was run?
**A.** The value was 81.

**Q.** How did the “KINOMEscan: CDKL3” value [1] turn out when `COc1cc(C(=O)N2CCC(N3CCN(C)CC3)CC2)ccc1Nc1ncc2c(n1)N(C1CCCC1)c1ccccc1C(=O)N2C` [Compound 25, 11-cyclopentyl-2-((2-methoxy-4-(4-(4-methylpiperazin-1-yl)piperidine-1-carbonyl)phenyl)amino)-5-methyl-5H-benzo[e]pyrimido[5,4-b][1,4]diazepin-6(11H)-one] was run?
**A.** Its value is 73.

**Q.** What about the “KINOMEscan: CDC2L2” value [2] of the same compound?
**A.** The value was 100.
